Patent US20190083498A1, “THERAPIES FOR HEMATOLOGIC MALIGNANCIES” (GILEAD CALISTOGA LLC, priority 2008, published 2019)

What was measured:
[1] = test system: CLL cells with or without StromaNKTert; experiment: CLL cell viability/apoptosis in stromal co-culture, Annexin V/PI FACS; type: cell-based, human; details: 24 hours
Method: CLL cell and stromal cell co-cultures: CLL cells were cultured under standardized conditions on stromal cell lines or primary NLC. Briefly, stromal cells were seeded one day prior to each experiment onto 24-well plates (Corning Life Sciences) at a concentration of 3×10^5 cells/mL/well and incubated at 37° C. in 5% CO2. Stromal cell confluence was confirmed by phase contrast microscopy, and CLL cells were then added onto the stromal cell layer at a concentration of 3×10^6 cells/mL. Cultures were then treated with compounds for the specified time periods. CLL cells were removed for analysis by gentle pipetting with media, and were then washed in PBS prior to analysis. A 24-hour co-culture time point was used unless otherwise indicated.
Cell viability testing and reagents: CLL cell viability was determined by analysis of Annexin V-FITC (BD Biosciences, San Diego, Calif.) and Propidium Iodine (PI) (Sigma) by FACS.
To determine whether PI3K inhibition increased the sensitivity of stroma-exposed CLL cells by increasing priming, PB-derived CLL cells cultured with or without StromaNKTert cells for 24 hours and were examined using Annexin-PI and BH3 profiling. […] Stromal co-culture of four CLL patient samples led to protection from apoptosis in untreated cells.

[2] = test system: IGROV-1 and OVCAR-3 cell lines; experiment: Proliferation of ovarian cancer cell lines, AlamarBlue; type: cell-based; details: IGROV-1 and OVCAR-3, with serum
Method: IGROV-1 and OVCAR-3 cell lines were grown in the presence of serum plus the indicated concentrations of the compound of formula I. Proliferation was measured in triplicate wells by AlamarBlue assay (Invitrogen) 96-well plates.

LB and INA-6 cells = experiment: MM cell DNA synthesis with IL-6 or IGF-1, [3H]-thymidine incorporation; type: cell-based, human; details: 5.0 or 10 μM; IL-6 1 and 10 ng/ml, IGF-1 10 and 100 ng/mL
Method: DNA synthesis was determined by measuring [3H]-thymidine incorporation during the last 8 h of 72 h cultures. Data represent means (±SD) of triplicate cultures.

HuVEC cells = experiment: AKT and ERK1/2 in HuVEC lysates, immunoblotting; type: cell-based, human; details: 0-200 μM; 8 h
From the text: Actin was used as a loading control.

[3] = test system: patient chronic lymphocytic leukemia (CLL) cells; experiment: Apoptosis of patient CLL cells, Annexin V-FITC/PI flow cytometry; type: cell-based, human
Method: Peripheral blood was obtained from patients with B-CLL through the CLL Research Consortium from Ohio State University. Primary CD19-positive cells were isolated using Rosette-Sep (StemCell Technologies). Cells were maintained in RPMI 1640 (Invitrogen) supplemented with 10% heat-inactivated fetal bovine serum, 2 mmol/L L-glutamine, and penicillin (100 units/mL)/streptomycin (100 μg/mL; Invitrogen) at 37° C., 5% CO2, and high humidity. After incubation with the compound of formula I or medium for 96 hours, 5×10^5 cells were washed with PBS and then resuspended in binding buffer (10 mmol/L HEPES/NaOH, pH 7.4, 150 mmol/L NaCl 5 mmol/L KCl, 1 mmol/L MgCl2, 1.8 mmol/L CaCl2) containing 2 μL of Annexin V-FITC stock (BioWhittaker, Inc) and 10 μL of 20 μg/mL PI (Sigma). After incubation for 10 minutes at room temperature in a light-protected area, the specimens were quantified by flow cytometry on a FACScan™ (Becton Dickinson).

CCRF-SB cells = experiment: Cell cycle FACS analysis, propidium iodide; type: cell-based; details: CCRF-SB ALL cell line
Method: Representative fluorescence-activated cell sorting (FACS) analysis of propidium iodide-stained CCRF-SB cells under normal growth conditions, and growth in the presence of the compound of formula I. The average percentage of cells in G0-G1, S, and G2-M phases is calculated in the table below the histographs.

[4] = test system: p110δ-negative cell lines; experiment: Growth inhibition of p110δ-negative MM cell lines, MTT; type: cell-based, human; details: 48 h
BMSCs = experiment: BMSC viability, MTT; type: cell-based, human; details: 0-20 μM, 48 h
Method: Cell viability was assessed by MTT assay, FIG. 34G. Values represent mean ±SD of triplicate cultures.

Phospho-Akt = Phospho-Akt production in patient AML cells; type: cell-based, human; details: 0.1, 1.0, 10 μM
From the text: PI3Kδ is implicated in signaling in AML patient cells.

primary MCL cells = experiment: Constitutive PI3K signaling in primary MCL cells; type: cell-based, human; details: two patients; dose dependent; 0.1 μM or 1 μM
[5] = test system: CLL cells on StromaNKTert; experiment: Calcein-based adhesion assay of CLL cells on stroma; type: cell-based, human
Method: Calcein-based adhesion assay: a confluent monolayer of CD154+ L or StromaNKTert cells was generated by plating 1×10^4 cells/well in 96-well plates for 24 hours. Single cell suspensions of CLL cells at 0.5×10^6 cells/ml were then labeled with 1 μg/mL Calcein-AM (Invitrogen) for 1 hour. Cells were then spun down and treated with compound or vehicle for 1 to 24 hours. Non-adherent cells were washed off by aspiration. CLL cell adhesion was quantified by fluorimetry (Ex/Em=485/520 nm), and visualized directly using the Nikon TE2000 inverted live-cell imaging system.

MM.1S cells = experiment: AKT and ERK phosphorylation, immunoblotting; type: cell-based, human; details: MM.1S cells with low expression of P110δ; 6 hours
From the text: (§1) Whole-cell lysates were subjected to sodium dodecyl sulfate-polyacrylamide gel electrophoresis (SDS-PAGE) separation, transferred to Pure Nitrocellulose membranes (Bio-Rad Laboratories, Hercules, Calif.), and immunoblotted with anti-AKT, phospho(p)-AKT (Ser473, Thr 308), ERK1/2 , P-ERK1/2, P-PDK1, STAT, P-STAT, P-FKRHL, P-70S6K, LC3, and PI3K/p110 α Abs (Cell Signaling Danvers, Mass.); anti-p110β, PI3K/p110δ, Glyceraldehyde 3-phosphate dehydrogenase (GAPDH), α-tubulin, and actin Abs (Santa Cruz Biotechnology, Calif.); and anti-p110 γ Ab (Alexis, San Diego, Calif.): and anti-LC3 Ab (Abgent, San Diego, Calif.).
(§2) Actin Ab was used as a loading control. […] Whole cell lysates were subjected to immunoblotting using AKT, P-AKT (Ser473 and Thr308), ERK1/2, P-ERK1/2, P-PDK1, and P-FKRHL antibodies. α-tubulin is used as a loading control.

patient MM cells = experiment: Viability of patient MM cells, MTT; type: cell-based, human; details: 48 h
From the text: Patient MM and BM cells were obtained from BM samples after informed consent was obtained per the Declaration of Helsinki and approval by the Institutional Review Board of the Dana-Farber Cancer Institute (Boston, Mass.). BM mononuclear cells were separated using Ficoll-Paque™ density sedimentation, and plasma cells were purified (>95% CD138+) by positive selection with anti-CD138 magnetic activated cell separation micro beads (Miltenyi Biotec, Auburn, Calif.). Tumor cells were also purified from the BM of MM patients using the RosetteSep negative selection system (StemCell Technologies, Vancouver, BC, Canada).
Data represent mean ±SD viability, assessed by MTT assay of triplicate cultures, expressed as percentage of untreated controls.

INA-6 cells = experiment: AKT and ERK pathway phosphorylation, immunoblotting; type: cell-based, human
From the text: as §1, §2

CC[C@H](Nc1ncnc2[nH]cnc12)c1nc2cccc(F)c2c(=O)n1-c1ccccc1 [Compound I, 5-fluoro-3-phenyl-2-[1-(9H-purin-6-ylamino)-propyl]-3H-quinazolin-4-one]
CLL cell viability in stromal co-culture, single agent ([1]; 10 μM alone, two patients): profound stroma-mediated resistance
apoptosis versus control in the absence of stroma ([1]; four CLL patient samples): induce more apoptosis than the control
apoptosis versus control in the presence of stroma ([1]; four CLL patient samples): induce significantly more apoptosis than the control
proliferation of ovarian cancer cell lines [2]: inhibits proliferation
growth inhibition in the presence of IL-6 or IGF-1 (LB and INA-6 cells): Neither IL-6 nor IGF-1 protected
phosphorylation and expression of AKT and ERK1/2 (HuVEC cells): markedly down regulated
apoptosis of CLL cells from poor prognosis patients [3]: induced apoptosis was seen
apoptosis of CLL cells from refractory/relapsed patients [3]: induced apoptosis was also seen to be effective
apoptosis of CLL patient cells ([3]; 96 hours): results in apoptosis
cell cycle effect (CCRF-SB cells): G0/G1 cell cycle arrest
cytotoxicity in p110δ-negative cell lines [4]: minimal cytotoxicity
growth inhibition in BMSCs (BMSCs): no significant growth inhibition
phospho-Akt production in patient AML cells (Phospho-Akt): reduces phopsho-Akt production
constitutive PI3K signaling in primary MCL cells (primary MCL cells): block constitutive PI3K signaling
CLL cell adherence to stroma after one hour [5]: reduced adherence
CLL cell adherence to stroma at 24 hours ([5]; 10 μM): less adherent
phosphorylation of AKT or ERK (MM.1S cells): did not affect
cytotoxicity against patient MM cells (patient MM cells): induced cytotoxicity
phosphorylation of upstream PDK-1 and downstream FKHRL (INA-6 cells; INA-6 and LB MM cells, 0-6 hours): significantly inhibited
phosphorylation of AKT and ERK1/2 (INA-6 cells; p110δ positive INA-6 cells): significantly blocked
